Where two headings read alike, the source gives them in different places.
Tests used:
[1] = target: T1, GAL4 DBD-CfEcR(DEF)/VP16AD-MmRXRE (Choristoneura fumiferana, UniProt O77240); experiment: 13B3 assay: luciferase reporter gene induction in stable CHO clone 13B3; format: cell-based; settings: for fold induction at 33.3 µM / Fold Induction Average, 13B3 assay: 48 h; for fold induction at 33.3 µM: read-out: Fold Induction Average, 13B3 assay
T1 construct: The wild-type D, E, and F domains from spruce budworm Choristoneura fumiferana EcR (“CfEcR-DEF”)
Procedure: CHO cells were transiently transfected with transcription cassettes for GAL4 DBD-CfEcR(DEF) and for VP16AD-MmRXRF controlled by SV40e promoters. Stably transfected cells were selected using Hygromycin. Individually isolated CHO cell clones were transiently transfected with a GAL4 RE-luciferase reporter (pFR-Luc, Stratagene, La Jolla, Calif.). The 13B3 clone was selected using Zeocin.
(§1) Cells were trypsinized and diluted to a concentration of 2.5×10^4 cells mL. 100 μL of cell suspension was placed in each well of a 96 well plate and incubated at 37° C. under 5% CO2 for 24 h. Ligand stock solutions were prepared in DMSO and diluted 300 fold for all treatments.
(§2) Luciferase reporter gene expression was measured 48 h after cell treatment using Bright-Glo™ Luciferase Assay System from Promega (E2650). Luminescence was detected at room temperature using a Dynex MLX microtiter plate luminometer.
(§3) Each assay was conducted in two separate wells, and the two values were averaged. Fold inductions were calculated by dividing relative light units (“RLU”) in ligand treated cells with RLU in DMSO treated cells. EC50s were calculated from dose response data using a three-parameter logistic model.

[2] = target: T2, GAL4 DBD (1-147)-CfEcR(DEF)/VP16AD-βRXREF-LmUSPEF (Choristoneura fumiferana, UniProt O77240); experiment: cell-based; settings: for fold induction at 33.3 µM: 48 h, read-out: Fold Induction Average, 27-63 assay; for Rel Max FI, 27-63 assay: maximum fold induction relative to that of GS-E ligand
T2 construct: The wild-type D, E, and F domains from spruce budworm Choristoneura fumiferana EcR (“CfEcR-DEF”)
Procedure: Stably transfected cells were selected by Zeocin resistance. Individually isolated CHO cell clones were transiently transfected with a GAL4 RE-luciferase reporter (pFR Luc). 27-63 clone was selected using Hygromycin.
as §1, §2, §3

Bombyx mori EcR (VBE) = target: T3, Bombyx mori EcR (VBE) (Bombyx mori, UniProt P49881); experiment: Z3 assay: β-galactosidase reporter gene induction in HEK-293 clone Z3 (CVBE / 6XEcRE LacZ); format: cell-based; settings: for fold induction at 33 µM: read-out: Fold Induction Average, Z3 assay
T3 construct: expressed in transfected cells; host or cells: Human HEK-293 cells, retrovirally infected, clone Z3
T3 sequence (P49881 86-606 limits assumed): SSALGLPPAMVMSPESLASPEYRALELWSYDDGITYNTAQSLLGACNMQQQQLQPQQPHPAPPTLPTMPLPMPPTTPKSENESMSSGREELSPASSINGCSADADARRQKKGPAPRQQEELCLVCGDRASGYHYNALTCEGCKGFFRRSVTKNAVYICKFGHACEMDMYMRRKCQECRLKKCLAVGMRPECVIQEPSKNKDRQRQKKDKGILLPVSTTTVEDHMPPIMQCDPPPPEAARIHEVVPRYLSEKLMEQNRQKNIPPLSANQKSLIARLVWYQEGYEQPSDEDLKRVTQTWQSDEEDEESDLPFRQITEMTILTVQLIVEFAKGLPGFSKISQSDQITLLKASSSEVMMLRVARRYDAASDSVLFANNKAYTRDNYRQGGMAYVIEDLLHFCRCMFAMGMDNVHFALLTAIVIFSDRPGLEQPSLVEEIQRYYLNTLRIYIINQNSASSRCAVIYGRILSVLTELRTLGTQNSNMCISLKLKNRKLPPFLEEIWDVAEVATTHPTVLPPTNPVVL
T3 sequence (P19793 1-462 partner): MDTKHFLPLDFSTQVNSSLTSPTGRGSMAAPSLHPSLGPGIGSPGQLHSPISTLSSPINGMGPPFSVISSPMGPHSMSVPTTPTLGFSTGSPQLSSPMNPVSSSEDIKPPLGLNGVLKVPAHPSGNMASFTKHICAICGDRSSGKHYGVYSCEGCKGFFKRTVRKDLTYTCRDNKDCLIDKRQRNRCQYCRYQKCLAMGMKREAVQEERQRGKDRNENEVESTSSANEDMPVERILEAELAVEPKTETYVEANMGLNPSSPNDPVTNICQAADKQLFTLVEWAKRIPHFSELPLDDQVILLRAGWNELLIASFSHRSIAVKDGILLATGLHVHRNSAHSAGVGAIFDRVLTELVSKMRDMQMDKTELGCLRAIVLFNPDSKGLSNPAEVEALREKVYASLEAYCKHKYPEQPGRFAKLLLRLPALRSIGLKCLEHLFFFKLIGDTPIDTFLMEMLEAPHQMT
Procedure: A synthetic ATG start codon was placed under the control of cytomegalovirus (CVBE) immediate early promoter and flanked by long terminal repeats (LTR). The reporter construct contained six copies of the ecdysone response element (EcRE) binding site placed upstream of LacZ and flanked on both sides with LTR sequences (6×EcRE).
Dilution cloning was used to isolate individual clones. Clones were selected using 450 ug/mL G418 and 100 ng/mL puromycin. Individual clones were evaluated based on their response in the presence and absence of test ligands.
Z3 cells were seeded into 96-well tissue culture plates at a concentration of 2.5×10^3 cells per well and incubated at 37° C. in 5% CO2 for twenty-four hours. Stock solutions of ligands were prepared in DMSO. […] The final concentration of DMSO was maintained at 0.03% in both controls and treatments.
Reporter gene expression was evaluated 48 hours after treatment of cells, β-galactosidase activity was measured using Gal Screen™ bioluminescent reporter gene assay system from Tropix (GSY1000). Fold induction activities were calculated by dividing relative light units (“RLU”) in ligand treated cells with RLU in DMSO treated cells. Luminescence was detected at room temperature using a Dynex MLX microtiter plate luminometer.
as §3

[3] = 33/33.3 μM ligand, RLU relative to DMSO
[4] = maximum fold induction relative to that of GS-E ligand
[5] = HEK293, 33 μM ligand, 48 h, RLU relative to DMSO
[6] = 33 μM ligand, 48 h, RLU relative to DMSO

| Structure (SMILES) | fold induction at 33.3 µM [1, 3] | EC50 [2] [µM] | fold induction at 33.3 µM [2] | Rel Max FI, 27-63 assay [2] | fold induction at 33 µM (Bombyx mori EcR (VBE); [5]) | Fold Induction Average, 13B3 assay [1, 3] | Fold Induction Average, Z3 assay (Bombyx mori EcR (VBE); [6]) | other results |
| --- | --- | --- | --- | --- | --- | --- | --- | --- |
| CCc1c(OC)cccc1C(=O)NN1C(c2cc(C)cc(C)c2)=NOC12CCCC2 [RG-120049] | 2660 | 3.42 | 2070 | 1.58 | 310 |  |  | EC50 [1]: 3.57 µM; Rel Max FI, 13B3 assay [1, 4]: 1.56; EC50 (Bombyx mori EcR (VBE)): 1.6 µM; Rel Max FI, Z3 assay (Bombyx mori EcR (VBE); [4]): 0.88 |
| CCc1ccc(C(=O)NN2C(c3ccc(OC(F)(F)F)cc3)=NOC2(C)C)cc1 [RG-120055] | 0.7 | > 33 | 0.5 | 0 | 0.2 |  |  |  |
| CCc1ccc(C(=O)NN2C(c3ccccc3)=NOC2(C)C)cc1 [RG-120115] |  | > 33 |  | 0 |  |  |  | fold induction at 33.3 µM [1]: 0.8; fold induction at 33 µM (Bombyx mori EcR (VBE); HEK293, 48 h): 9.1 |
| CCc1ccc(C(=O)NN2C(c3ccccc3)=NOC23CCOCC3)cc1 [RG-120124] | 1.2 | > 33 | 1 | 0 | 2 |  |  |  |
| Cc1cc(C)cc(C2=NOC(C)(C)N2NC(=O)c2ccc(Cl)cc2)c1 [RG-120024] | 2.1 | > 33 | 6.3 | 0 | 3.8 |  |  |  |
| CCc1c(OC)cccc1C(=O)NN1C(c2ccccc2OC)=NOC1(C)C [RG-120016] | 4.4 | ~20 | 1150 | 0.71 | 227 |  |  |  |
| CCc1ccc(C(=O)NN2C(c3ccc4c(c3)OCO4)=NOC2(C)C)cc1 [RG-120061] | 0.4 | > 33 | 0.9 | 0 | 0.6 |  |  |  |
| CCc1c(OC)cccc1C(=O)NN1C(c2ccccc2)=NOC12CCOCC2 [RG-120159] | 0.1 | > 33 | 3.7 | 0 | 0.2 |  |  |  |
| CCc1c(OC)cccc1C(=O)NN1C(c2ccc(OC)cc2OC)=NOC1(C)C [RG-120058] | 0.3 | > 33 | 0.3 | 0 | 1.7 |  |  |  |
| Cc1cc(C)cc(C2=NOC(C)(C)N2NC(=O)c2cccc(F)c2)c1 [RG-120002] | 0.2 | > 33 | 5.7 | 0 | 3.9 |  |  |  |
| Cc1cc(C)cc(C2=NOC3(CCCC3)N2NC(=O)Cc2ccccc2)c1 [RG-120046] |  |  |  |  |  | 1.3 | 8.9 |  |
| CC1(C)ON=C(c2ccc(Cl)cc2)N1NC(=O)COc1ccccc1 [RG-120162] |  |  |  |  |  | 0.9 | 0.7 |  |
| CC1(C)ON=C(c2ccc3c(c2)OCO3)N1NC(=O)COCc1ccccc1 [RG-120145] |  |  |  |  |  | 1.4 | 0.5 |  |
| Cc1cc(C)cc(C2=NOC(C)(C)N2NC(=O)c2ccccc2[N+](=O)[O-])c1 [RG-120098] |  |  |  |  |  | 0.3 | 1.8 |  |
| COc1cccc(C(=O)NN2C(c3cc(C)cc(C)c3)=NOC2(C)C)c1C [RG-120045, N-[3-(3,5-Dimethyl-phenyl)-5,5-dimethyl-[1,2,4]oxadiazol-4-yl]-3-methoxy-2-methyl-benzamide] | 1410 | ~20 | 2710 | 1.25 | 276 |  |  |  |
| Cc1cc(C)cc(C2=NOC3(CCCC3)N2NC(=O)COCc2ccccc2)c1 [RG-120052] |  |  |  |  |  | 0.7 | 4.9 |  |
| COc1cccc(C(=O)NN2C(c3cc(C)cc(C)c3)=NOC23CCc2ccccc2C3)c1C (centres unmarked) [RG-120037, N-[3-(3,5-Dimethyl-phenyl)-1-oxa-2,4-diaza-spiro[4.5]-7,8-benzo-dec-2-en-4-yl]-3-methoxy-2-methyl-benzamide] | 0.3 | > 33 | 0.4 | 0 | 0.5 |  |  |  |
| COc1ccccc1C1=NOC(C)(C)N1NC(=O)c1ccco1 [RG-120012] |  |  |  |  |  | 0.7 | 0.7 |  |
| COc1ccc(C2=NOC(C)(C)N2NC(=O)c2cc3ccccc3s2)c(OC)c1 [RG-120129] |  |  |  |  |  | 0.9 | 0.4 |  |
| CCC1(C)ON=C(c2ccccc2)N1NC(=O)c1ccccc1 (centres unmarked) [RG-120118] | 0.8 | > 33 | 13.4 | 0 | 1.4 |  |  |  |
| CC1(C)ON=C(c2cccc(C(F)(F)F)c2)N1NC(=O)c1ccco1 [RG-120070] |  |  |  |  |  | 0.4 | 0.7 |  |
| CCc1ccc(C(=O)NN2C(c3ccc(OC)cc3OC)=NOC2(C)C)cc1 [RG-120135] | 0.4 | > 33 | 0.7 | 0 | 0.7 |  |  |  |
| COc1ccc(C2=NOC(C)(C)N2NC(=O)Nc2ccccc2)c(OC)c1 [RG-120114] |  |  |  |  |  | 1.1 | 0.6 |  |
| CCc1ccc(C(=O)NN2C(c3cc(C)cc(C)c3)=NOC23CCCC3)cc1 [RG-120040] | 174 | ~20 | 242 | 0.13 | 202 |  |  |  |
| CC1(C)ON=C(c2ccc(OC(F)(F)F)cc2)N1NC(=O)COCc1ccccc1 [RG-120066] |  |  |  |  |  | 1.4 | 0.6 |  |
| CC1(C)ON=C(c2ccc(OC(F)(F)F)cc2)N1NC(=O)c1ccccc1 [RG-120033] |  |  |  |  |  | 0.9 | 0.7 |  |
| Cc1cccc(NC(=O)NN2C(c3cc(C)cc(C)c3)=NOC2(C)C)c1 [RG-120056] |  |  |  |  |  | 0.1 | 1.0 |  |
| Cc1cc(C)cc(C2=NOC(C)(C)N2NC(=O)c2cccc([N+](=O)[O-])c2)c1 [RG-120091] |  |  |  |  |  | 0.5 | 1.5 |  |

Source: patent US8669072B2, “Oxadiazoline ligands for modulating the expression of exogenous genes via an ecdysone receptor complex” (Intrexon Corporation, priority 2003, dated 2014)
